Laboratory results as given in patent publication US12583858B2 (Genentech, Inc., priority 2015, dated 2026).
pEC50: −log10 of the molar value. Read-outs that look alike come from different tables or passages of the source.

How the values were obtained:
[1] = target: T1, TDO2 (Homo sapiens, UniProt P48775); test: TDO2 cell assay (NFK GreenScreen, SW48 cells); assay type: cell-based; details: SW48 cells (high TDO expressing)
T1 construct: decreased levels of NFK in SW48 cells (high TDO expressing cells)

[2] = target: T2, IDO (Homo sapiens, UniProt P14902); test: IDO cell assay (NFK GreenScreen, A172+IFNg cells); assay type: cell-based; details: A172 cells + 100 ng/ml IFNγ (high IDO expressing), 100 uM tryptophan, 24 hours; TDO selectivity table; read-out: IDO cell Fluor EC50
T2 construct: selective against A172+IFNg cells (high IDO expressing cells)
Description: Cells are counted on a Vi-Cell (Beckman Coulter). […] The final DMSO concentration is 0.5%.
Compounds of the invention were tested for selectivity against TDO over IDO. The cell based assay described above was used to test for TDO and IDO activity.

[3] = 200 uM tryptophan, 24 hours, Table 3, read-out: TDO2 Cell Fluor EC50
[4] = TDO selectivity table, read-out: TDO2 cell Fluor EC50

T1 sequence (P48775 whole entry): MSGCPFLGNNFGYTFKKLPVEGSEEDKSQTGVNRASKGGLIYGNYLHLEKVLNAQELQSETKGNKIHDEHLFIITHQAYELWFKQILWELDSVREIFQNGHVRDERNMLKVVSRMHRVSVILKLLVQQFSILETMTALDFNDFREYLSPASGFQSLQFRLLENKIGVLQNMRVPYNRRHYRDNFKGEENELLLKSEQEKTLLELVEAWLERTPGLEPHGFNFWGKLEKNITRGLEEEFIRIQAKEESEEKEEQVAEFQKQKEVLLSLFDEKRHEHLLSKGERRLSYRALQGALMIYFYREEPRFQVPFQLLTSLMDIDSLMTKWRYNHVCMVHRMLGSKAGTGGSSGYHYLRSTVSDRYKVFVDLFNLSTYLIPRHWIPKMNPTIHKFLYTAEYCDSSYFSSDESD
T2 sequence (P14902 whole entry): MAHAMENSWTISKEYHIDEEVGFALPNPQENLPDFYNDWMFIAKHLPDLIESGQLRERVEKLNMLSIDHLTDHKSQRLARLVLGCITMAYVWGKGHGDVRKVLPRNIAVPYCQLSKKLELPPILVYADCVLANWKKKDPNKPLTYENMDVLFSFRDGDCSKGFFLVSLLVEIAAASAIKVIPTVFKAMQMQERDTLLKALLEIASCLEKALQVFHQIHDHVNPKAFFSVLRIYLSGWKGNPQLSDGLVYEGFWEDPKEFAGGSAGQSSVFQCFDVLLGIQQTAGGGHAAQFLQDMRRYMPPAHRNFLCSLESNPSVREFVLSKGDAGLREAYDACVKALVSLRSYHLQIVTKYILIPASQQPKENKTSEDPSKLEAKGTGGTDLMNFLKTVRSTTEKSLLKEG

pEC50 [1, 3] | pEC50 [1, 4] | pEC50 [2] | SMILES
7.06 | 7.06 | 5.74 | Cn1cc2c(n1)CCC(C1c3ccccc3-c3cncn31)C2O (single isomer, unassigned) [Example 130d]
7.80 | 7.80 | 5.70 | CC1(C)C[C@@H](O)[C@@H]1[C@H]1c2ccccc2-c2cncn21 [Example 22b, (1R,2S)-2-((S)-5H-imidazo[5,1-a]isoindol-5-yl)-3,3-dimethylcyclobutan-1-ol]
6.42 | 6.42 | 4.89 | Cn1ncc2c1CCC(C1c3ccccc3-c3cncn31)C2O (single isomer, unassigned) [Example 93a]
6.60 | 6.60 | 5.30 | C[C@H](O)[C@H]1c2ccccc2-c2cncn21 [Example 42c, (S)-1-((R)-5H-imidazo[5,1-a]isoindol-5-yl)ethan-1-ol]
7.43 | 7.43 | 5.62 | O[C@@H]1CC[C@H]1[C@H]1c2ccccc2-c2cncn21 [Example 01d, (1R,2S)-2-((S)-5H-imidazo[5,1-a]isoindol-5-yl)cyclobutan-1-ol]
7.38 | 7.38 | 5.10 | OC1c2[nH]ncc2CCC1C1c2ccccc2-c2cncn21 (single isomer, unassigned) [Example 157g]
4.68 | – | – | CC1(O)CCOCC1C1c2ccccc2-c2cncn21 (single isomer, unassigned) [Example 61d]
7.24 | – | – | CC1(C)CCCC(C)(C2c3ccccc3-c3cncn32)C1O (single isomer, unassigned) [Example 90c]
< 4.60 | – | – | CC(C)(C)OC(=O)N1CCC(O)C(C2c3ccccc3-c3cncn32)C1 (single isomer, unassigned) [Example 11c, tert-butyl 4-hydroxy-3-(5H-imidazo[5,1-a]isoindol-5-yl)piperidine-1-carboxylate]
5.47 | – | – | OC1CCCCCC1C1c2ccccc2-c2cncn21 (single isomer, unassigned) [Example 115b, 2-(5H-imidazo[5,1-a]isoindol-5-yl)cycloheptan-1-ol]
6.15 | – | – | Cn1cc2c(n1)[C@@H](O)[C@@H]([C@@H]1c3ccccc3-c3cncn31)CC2 (single isomer, unassigned) [Example 139-1d]
5.70 | – | – | OC1c2ccccc2CC1C1c2ccccc2-c2cncn21 (single isomer, unassigned) [Example 19e]
4.68 | – | – | OC1c2nccn2CCC1C1c2ccccc2-c2cncn21 (single isomer, unassigned) [Example 88d]
6.43 | – | – | OC1c2ccnn2CCC1C1c2ccccc2-c2cncn21 (single isomer, unassigned) [Example 56b]
6.28 | – | – | OC1CCCOCC1C1c2ccccc2-c2cncn21 (single isomer, unassigned) [Example 86b]
6.24 | – | – | CC1(O)CCOCC1C1c2ccccc2-c2cncn21 (single isomer, unassigned) [Example 61a]
7.07 | – | – | CC1(C)CCC(C2c3ccccc3-c3cncn32)C1O (single isomer, unassigned) [Example 23b]
4.77 | – | – | CC1(C)CCC(C2c3ccccc3-c3cncn32)C1O (single isomer, unassigned) [Example 23e]
6.82 | – | – | O=S1(=O)CC(O)C(C2c3ccccc3-c3cncn32)C1 (single isomer, unassigned) [Example 38b]
5.09 | – | – | CS(=O)(=O)N1CCC(C2c3ccccc3-c3cncn32)C(O)C1 (single isomer, unassigned) [Example 79a]

Further lines, the molecule ahead of its results:

SMILES | pEC50 [1, 3] | pEC50 [1, 4] | pEC50 [2]
OC1c2cnccc2CCC1C1c2ccccc2-c2cncn21 (single isomer, unassigned) [Example 04e] | 7.31 | 7.31 | 5.92
NC(=O)c1nc2c(s1)CCC(C1c3ccccc3-c3cncn31)C2O (single isomer, unassigned) [Example 149b] | 7.26 | 7.26 | 5.68
NS(=O)(=O)c1ccc2c(c1)CCC(C1c3ccccc3-c3cncn31)C2O (single isomer, unassigned) [Example 100g] | 7.24 | 7.24 | 5.77
O[C@@H]1c2cncn2CC[C@H]1[C@H]1c2ccccc2-c2cncn21 [Example 07h, (7S,8S)-7-((S)-5H-imidazo[5,1-a]isoindol-5-yl)-5,6,7,8-tetrahydroimidazo[1,5-a]pyridin-8-ol] | 6.07 | 6.07 | < 4.60
OC1c2cncnc2CCC1C1c2ccccc2-c2cncn21 (single isomer, unassigned) [Example 94c] | 6.96 | 6.96 | 5.08
NS(=O)(=O)N1CCC(O)C(C2c3ccccc3-c3cncn32)CC1 (single isomer, unassigned) [Example 101d, 4-hydroxy-5-(5H-imidazo[5,1-a]isoindol-5-yl)azepane-1-sulfonamide] | 6.11 | 6.11 | 4.68
O[C@@H]1c2ccnn2CC[C@H]1[C@H]1c2ccccc2-c2cncn21 [Example 56a, (4S,5S)-5-((S)-5H-imidazo[5,1-a]isoindol-5-yl)-4,5,6,7-tetrahydropyrazolo[1,5-a]pyridin-4-ol] | 6.82 | 6.82 | 5.35
OC1c2cnncc2CCC1C1c2ccccc2-c2cncn21 (single isomer, unassigned) [Example 112b] | 6.62 | 6.62 | 4.82
CCS(=O)(=O)N1CC[C@@H]([C@H]2c3ccccc3-c3cncn32)[C@H](O)C1 [Example 16a, (3S,4S)-1-(ethylsulfonyl)-4-((S)-5H-imidazo[5,1-a]isoindol-5-yl)piperidin-3-ol] | 6.96 | 6.96 | 5.92
NC(=O)c1ccc2c(c1)CC[C@@H]([C@H]1c3ccccc3-c3cncn31)[C@@H]2O [Example 60e, (5S,6S)-5-hydroxy-6-((S)-5H-imidazo[5,1-a]isoindol-5-yl)-5,6,7,8-tetrahydronaphthalene-2-carboxamide] | 7.46 | 7.46 | 5.85
OC1C(C2c3ccc(F)cc3-c3cncn32)CC12CCOCC2 (single isomer, unassigned) [Example 109c] | 6.64 | 6.64 | < 4.60
N#Cc1ccc2c(c1)CCC(C1c3ccccc3-c3cncn31)C2O (single isomer, unassigned) [Example 62a] | 5.00 | – | –
OC1CCOCC1C1c2cc(F)ccc2-c2cncn21 (single isomer, unassigned) [Example 75a] | < 4.60 | – | –
Nc1ncc2c(n1)CCC(C1c3ccccc3-c3cncn31)C2O (single isomer, unassigned) [Example 111d] | < 4.60 | – | –
NC(=O)c1ccc2c(c1)CCC(C1c3ccccc3-c3cncn31)C2O (single isomer, unassigned) [Example 60b] | 5.39 | – | –
OC(C1c2ccccc2-c2cncn21)C1(F)CC1 (single isomer, unassigned) [Example 154b] | < 4.60 | – | –
CS(=O)(=O)c1ccc2c(c1)OCC(C1c3ccccc3-c3cncn31)C2O (single isomer, unassigned) [Example 91d] | 6.44 | – | –
NC(=O)c1nc2c(s1)CCC(C1c3ccccc3-c3cncn31)C2O (single isomer, unassigned) [Example 149g] | 4.62 | – | –
NC(=O)c1ccc2c(c1)C(O)C(C1c3ccccc3-c3cncn31)CC2 (single isomer, unassigned) [Example 122a] | 7.46 | 7.46 | 5.59
OC1COCC1C1c2ccc(F)cc2-c2cncn21 (single isomer, unassigned) [Example 30a] | 6.59 | – | –
CS(=O)(=O)c1ccc2c(c1)OCC(C1c3ccccc3-c3cncn31)C2O (single isomer, unassigned) [Example 91g] | 5.64 | – | –
N#Cc1cnc2c(c1)CCC(C1c3ccccc3-c3cncn31)C2O (single isomer, unassigned) [Example 107f] | 6.38 | – | –
Cc1ccc2c(c1)C(C1COCC1O)n1cncc1-2 (single isomer, unassigned) [Example 110d] | < 4.60 | – | –
Cc1ccc2c(c1)C(C1COCC1O)n1cncc1-2 (single isomer, unassigned) [Example 110b] | < 4.60 | – | –
CC(C)(C)OC(=O)N1CCC(C2c3ccccc3-c3cncn32)C(O)C1 (single isomer, unassigned) [Example 10b, tert-butyl 3-hydroxy-4-(5H-imidazo[5,1-a]isoindol-5-yl)piperidine-1-carboxylate] | < 4.60 | – | –
